Test results as given in patent US11345700B2, “Methods of preparing inhibitors of influenza viruses replication” (priority 2013, dated 2022).
Read-outs that look alike come from different tables or passages of the source.

How the values were obtained:
[1] = test system: influenza A/Wisconsin/67/2005 (H3N2) challenge strain virus; experiment: Human influenza challenge: nasal influenza shedding by qRT-PCR; type: in vivo, healthy volunteers (humans)
Procedure: (§1) Subjects underwent thrice daily nasal swabs, and kept thrice daily score cards for clinical symptoms from Days 1-7, and were discharged from the facility on Day 8, with safety follow-up at approximately Day 28. Nasal swabs were assayed for influenza virus in cell culture (primary analysis) and by qRT-PCR (secondary analysis).

influenza A/PR/8/34 = experiment: In vivo combination of Compound (1) with zanamivir, influenza A challenge in mice
Description: Efficiency quotient, a composite measure of survival, bodyweight loss and lung function (% survival/(% body weight loss at Day 8)*(Penh at Day 6)) is summarized in Table 19B.

[2] = test system: influenza A/Wisconsin/67/2005 (H3N2) challenge strain virus; experiment: Human live attenuated influenza challenge: nasal viral shedding by TCID50 cell culture assay; type: in vivo, healthy volunteers (humans)
Procedure: as §1
Additional FA group analyses were performed (data not shown).

[3] = test system: Influenza A/Victoria/3/75 (H3N2) virus; type: in vivo, BALB/c mice
[4] = Pooled Compound (1) dose groups (N = 52)
[5] = Zanamivir 0.3 mg/kg IN x 1 (24 h prior) + Compound (1) 0.3 mg/kg BID (from 2 h prior)
[6] = Zanamivir 0.3 mg/kg IN x 1 (24 h prior) + Compound (1) 1 mg/kg BID (from 2 h prior)
[7] = Zanamivir 1 mg/kg IN x 1 (24 h prior) + Compound (1) 0.1 mg/kg BID (from 2 h prior)
[8] = Zanamivir 1 mg/kg IN x 1 (24 h prior) + Compound (1) 0.3 mg/kg BID (from 2 h prior)
[9] = Zanamivir 1 mg/kg IN x 1 (24 h prior) + Compound (1) 1 mg/kg BID (from 2 h prior)
[10] = Zanamivir 3 mg/kg IN x 1 (24 h prior) + Compound (1) 0.1 mg/kg BID (from 2 h prior)
[11] = Zanamivir 3 mg/kg IN x 1 (24 h prior) + Compound (1) 0.3 mg/kg BID (from 2 h prior)
[12] = Zanamivir 3 mg/kg IN x 1 (24 h prior) + Compound (1) 1 mg/kg BID (from 2 h prior)
[13] = 1 mg/kg p.o. twice a day for 10 days starting 2 hours prior to virus exposure
[14] = 3 mg/kg p.o. twice a day for 10 days starting 2 hours prior to virus exposure
[15] = 10 mg/kg p.o. twice a day for 10 days starting 2 hours prior to virus exposure

O=C(O)[C@H]1[C@H]2CC[C@H](CC2)[C@@H]1Nc1nc(-c2c[nH]c3ncc(F)cc23)ncc1F [Compound (1)]
Viral Sheeding by qRT-PCR Duration, median ([1]; 400 mg QD (N = 12)): 1.36 days
Viral Sheeding by qRT-PCR Peak, mean ([1]; 400 mg QD (N = 12)): 3.90 log10 TCID50/mL
Viral Sheeding by qRT-PCR AUC, median ([1]; 900/600 mg (N = 14)): 10.65 log10 copies/mL*Day
Viral Sheeding by qRT-PCR Duration, median ([1]; 900/600 mg (N = 14)): 2.39 days
Viral Sheeding by qRT-PCR Peak, mean ([1]; 900/600 mg (N = 14)): 5.08 log10 TCID50/mL
Viral Sheeding by qRT-PCR AUC, median ([1]; 1200/600 mg (N = 14)): 0.45 log10 copies/mL*Day
Viral Sheeding by qRT-PCR Duration, median ([1]; 1200/600 mg (N = 14)): 0.00 days
Viral Sheeding by qRT-PCR Peak, mean ([1]; 1200/600 mg (N = 14)): 2.37 log10 TCID50/mL
Viral Sheeding by qRT-PCR AUC, median [1, 4]: 3.45 log10 copies/mL*Day
Viral Sheeding by qRT-PCR Duration, median [1, 4]: 0.71 days
Viral Sheeding by qRT-PCR Peak, mean [1, 4]: 3.91 log10 TCID50/mL
Survival Rate (influenza A/PR/8/34; Compound (1) 0.1 mg/kg BID 10 days, 1st dose 2 h prior to infection, Zanamivir 0): 12.5
Survival Rate (influenza A/PR/8/34; Compound (1) 0.3 mg/kg BID 10 days, 1st dose 2 h prior to infection, Zanamivir 0): 44.4
Efficiency Quotient (% survival/(% body weight loss at Day 8)*(Penh at Day 6)) (influenza A/PR/8/34; Compound (1) 0.3 mg/kg BID, 1st dose 2 h prior to infection, Zanamivir 0): 0.59
Survival Rate (influenza A/PR/8/34; Compound (1) 1 mg/kg BID 10 days, 1st dose 2 h prior to infection, Zanamivir 0): 100
Efficiency Quotient (% survival/(% body weight loss at Day 8)*(Penh at Day 6)) (influenza A/PR/8/34; Compound (1) 1 mg/kg BID, 1st dose 2 h prior to infection, Zanamivir 0): 2.32
Survival Rate (influenza A/PR/8/34; Zanamivir 0.3 mg/kg IN x 1 (24 h prior) + Compound (1) 0.1 mg/kg BID (from 2 h prior)): 0
Efficiency Quotient (% survival/(% body weight loss at Day 8)*(Penh at Day 6)) (influenza A/PR/8/34; [5]): 1.35
Survival Rate (influenza A/PR/8/34; [5]): 100
Efficiency Quotient (% survival/(% body weight loss at Day 8)*(Penh at Day 6)) (influenza A/PR/8/34; [6]): 2.97
Survival Rate (influenza A/PR/8/34; [6]): 100
Efficiency Quotient (% survival/(% body weight loss at Day 8)*(Penh at Day 6)) (influenza A/PR/8/34; [7]): 1.00
Survival Rate (influenza A/PR/8/34; [7]): 75
Efficiency Quotient (% survival/(% body weight loss at Day 8)*(Penh at Day 6)) (influenza A/PR/8/34; [8]): 1.61
Survival Rate (influenza A/PR/8/34; [8]): 100
Efficiency Quotient (% survival/(% body weight loss at Day 8)*(Penh at Day 6)) (influenza A/PR/8/34; [9]): 2.31
Survival Rate (influenza A/PR/8/34; [9]): 100
Efficiency Quotient (% survival/(% body weight loss at Day 8)*(Penh at Day 6)) (influenza A/PR/8/34; [10]): 1.30
Survival Rate (influenza A/PR/8/34; [10]): 100
Efficiency Quotient (% survival/(% body weight loss at Day 8)*(Penh at Day 6)) (influenza A/PR/8/34; [11]): 1.48
Survival Rate (influenza A/PR/8/34; [11]): 100
Efficiency Quotient (% survival/(% body weight loss at Day 8)*(Penh at Day 6)) (influenza A/PR/8/34; [12]): 4.28
Survival Rate (influenza A/PR/8/34; [12]): 100
Viral Shedding by Tissue Culture AUC, median ([2]; 100 mg QD (N = 12)): 1.25 log10 TCID50 mL*Day
Viral Shedding by Tissue Culture Duration, median ([2]; 100 mg QD (N = 12)): 0.96 days
Viral Shedding by Tissue Culture Peak, mean ([2]; 100 mg QD (N = 12)): 2.09 log10 TCID50/mL
Viral Shedding by Tissue Culture AUC, median ([2]; 400 mg QD (N = 12)): 0.70 log10 TCID50 mL*Day
Viral Shedding by Tissue Culture Duration, median ([2]; 400 mg QD (N = 12)): 1.60 days
Viral Shedding by Tissue Culture Peak, mean ([2]; 400 mg QD (N = 12)): 1.73 log10 TCID50/mL
Viral Shedding by Tissue Culture AUC, median ([2]; 900/600 mg (N = 14)): 3.20 log10 TCID50 mL*Day
Viral Shedding by Tissue Culture Duration, median ([2]; 900/600 mg (N = 14)): 2.71 days
Viral Shedding by Tissue Culture Peak, mean ([2]; 900/600 mg (N = 14)): 2.68 log10 TCID50/mL
Viral Shedding by Tissue Culture AUC, median ([2]; 1200/600 mg (N = 14)): 0.35 log10 TCID50 mL*Day
Viral Shedding by Tissue Culture Duration, median ([2]; 1200/600 mg (N = 14)): 0.00 days
Viral Shedding by Tissue Culture Peak, mean ([2]; 1200/600 mg (N = 14)): 1.00 log10 TCID50/mL
Viral Shedding by Tissue Culture AUC, median [2, 4]: 0.65 log10 TCID50 mL*Day
Viral Shedding by Tissue Culture Duration, median [2, 4]: 0.71 days
Viral Shedding by Tissue Culture Peak, mean [2, 4]: 1.87 log10 TCID50/mL
MDD ± SD (mean day of death of mice that died on or before day 21) [3, 13]: 9.8
Mean Lung Parameters (Day 6): Score (hemorrhage score 0-4) [3, 13]: 3.2
Mean Lung Parameters (Day 6): Virus Titer [3, 13]: 7.3 Log10 CCID50/g
Mean Lung Parameters (Day 6): Weight [3, 13]: 274 mg
Survivors/Total [3, 13]: 4/10
Mean Lung Parameters (Day 6): Score (hemorrhage score 0-4) [3, 14]: 3.3
Mean Lung Parameters (Day 6): Virus Titer [3, 14]: 7.2 Log10 CCID50/g
Mean Lung Parameters (Day 6): Weight [3, 14]: 260 mg
Mean Lung Parameters (Day 6): Score (hemorrhage score 0-4) [3, 15]: 0.1
Mean Lung Parameters (Day 6): Virus Titer [3, 15]: 6.1 Log10 CCID50/g
Mean Lung Parameters (Day 6): Weight [3, 15]: 164 mg
